Results on 44 compounds are retold here after patent US20240101572A1, “DIHYDROOXADIAZINONE COMPOUND AND PHARMACEUTICAL USE THEREOF” (Japan Tobacco Inc., priority 2022, published 2024).

As a reminder, the IC50 is the midpoint of a concentration-inhibition curve.

A value given as a limit tells only on which side of the number the result lay.

The target in one assay is full-length human PLD2 (Homo sapiens (Human), UniProt O14939). Nature of the assay: Evaluation of human PLD2 enzyme inhibitory activity (Amplex Red / choline oxidase fluorescence). Type of assay: biochemical. Conditions: full-length human PLD2 enzyme; read-out: PLD2 IC50. In short, it runs like this: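 Released choline was read by Amplex Red fluorescence coupled to choline oxidase and HRP after a 60 min room-temperature reaction. Substrate was diheptanoyl phosphatidylcholine, added as a 6 mmol/L solution, and enzyme was FLAG-tagged full-length human PLD2 from Expi293F, added as a 6 nmol/L solution. Buffer was 50 mM HEPES pH 7.5 with 5% final DMSO.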

The target in another assay is full-length human PLD1 (Homo sapiens (Human), UniProt Q13393). Nature of the assay: Evaluation of human PLD1 enzyme inhibitory activity (Amplex Red / choline oxidase fluorescence). Conditions: full-length human PLD1 enzyme; read-out: PLD1 IC50. It counts as biochemical. In short, it runs like this: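 Fluorescence read-out couples choline to Amplex Red via choline oxidase and peroxidase after a 60 min room-temperature reaction. Enzyme: FLAG-tagged full-length human PLD1 from Expi293F cells, anti-FLAG purified; substrate diheptanoyl phosphatidylcholine; HEPES pH 7.5 assay buffer with 0.01% NP-40, 0.1% BSA, 5% DMSO final.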
full-length human PLD1, sequence (Q13393 other isoform, or with tags, fused parts or gaps): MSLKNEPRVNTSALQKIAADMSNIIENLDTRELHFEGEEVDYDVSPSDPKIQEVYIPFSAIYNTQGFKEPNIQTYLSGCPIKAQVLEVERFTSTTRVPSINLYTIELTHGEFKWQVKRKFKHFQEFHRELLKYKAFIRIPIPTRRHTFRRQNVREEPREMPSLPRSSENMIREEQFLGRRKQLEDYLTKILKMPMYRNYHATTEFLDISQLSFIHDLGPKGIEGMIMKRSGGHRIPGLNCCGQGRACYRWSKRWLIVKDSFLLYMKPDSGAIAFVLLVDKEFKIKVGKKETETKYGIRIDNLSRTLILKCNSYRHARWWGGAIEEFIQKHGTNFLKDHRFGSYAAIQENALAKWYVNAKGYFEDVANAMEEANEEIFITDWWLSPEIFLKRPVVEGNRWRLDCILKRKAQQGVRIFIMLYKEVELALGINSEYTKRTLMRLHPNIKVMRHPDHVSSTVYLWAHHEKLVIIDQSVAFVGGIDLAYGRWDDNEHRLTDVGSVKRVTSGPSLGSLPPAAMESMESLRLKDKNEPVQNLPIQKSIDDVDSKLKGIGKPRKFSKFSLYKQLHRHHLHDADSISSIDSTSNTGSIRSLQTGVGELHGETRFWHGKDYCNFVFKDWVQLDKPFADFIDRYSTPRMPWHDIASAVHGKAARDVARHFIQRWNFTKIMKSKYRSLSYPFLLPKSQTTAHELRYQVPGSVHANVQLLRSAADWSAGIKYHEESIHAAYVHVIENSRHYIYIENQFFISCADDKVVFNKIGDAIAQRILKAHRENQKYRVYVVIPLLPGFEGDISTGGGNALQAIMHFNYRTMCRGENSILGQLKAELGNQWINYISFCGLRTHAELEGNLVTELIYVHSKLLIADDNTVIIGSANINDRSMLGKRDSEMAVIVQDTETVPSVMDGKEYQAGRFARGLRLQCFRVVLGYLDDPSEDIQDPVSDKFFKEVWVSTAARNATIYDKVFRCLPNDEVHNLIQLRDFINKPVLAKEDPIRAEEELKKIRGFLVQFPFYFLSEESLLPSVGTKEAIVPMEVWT

full-length human PLD2, sequence (O14939 whole entry): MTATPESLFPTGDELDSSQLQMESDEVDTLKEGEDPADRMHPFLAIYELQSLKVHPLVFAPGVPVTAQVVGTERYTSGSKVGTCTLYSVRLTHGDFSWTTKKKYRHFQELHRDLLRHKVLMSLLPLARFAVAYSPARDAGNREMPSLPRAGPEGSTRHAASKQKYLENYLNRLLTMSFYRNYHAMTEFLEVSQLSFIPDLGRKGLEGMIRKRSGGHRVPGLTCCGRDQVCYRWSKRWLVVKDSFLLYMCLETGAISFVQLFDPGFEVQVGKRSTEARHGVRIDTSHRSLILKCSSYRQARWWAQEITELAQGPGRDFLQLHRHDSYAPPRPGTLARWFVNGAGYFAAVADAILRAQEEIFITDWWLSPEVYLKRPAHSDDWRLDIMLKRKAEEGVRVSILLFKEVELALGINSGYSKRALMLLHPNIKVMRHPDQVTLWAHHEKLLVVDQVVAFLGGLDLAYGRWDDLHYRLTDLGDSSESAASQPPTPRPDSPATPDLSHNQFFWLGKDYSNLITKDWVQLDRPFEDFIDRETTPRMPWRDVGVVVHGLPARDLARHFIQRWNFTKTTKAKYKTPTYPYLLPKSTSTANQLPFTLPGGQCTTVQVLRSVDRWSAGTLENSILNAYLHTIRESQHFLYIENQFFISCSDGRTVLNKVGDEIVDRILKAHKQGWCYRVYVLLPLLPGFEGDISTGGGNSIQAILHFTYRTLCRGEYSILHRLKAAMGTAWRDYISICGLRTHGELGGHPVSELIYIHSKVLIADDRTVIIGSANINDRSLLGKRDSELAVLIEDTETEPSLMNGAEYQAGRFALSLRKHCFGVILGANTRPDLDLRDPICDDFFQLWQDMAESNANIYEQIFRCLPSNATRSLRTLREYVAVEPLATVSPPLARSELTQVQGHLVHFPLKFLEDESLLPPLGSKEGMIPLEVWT

With `C[C@@H](C[C@H]1CC[C@]2(CC1)OC(=O)NN=C2c1ccc(F)cc1Br)NC(=O)/C=C/CN(C)C` [Example 279], the IC50 came out at 44 nM at full-length human PLD2 and 86 nM at full-length human PLD1.
Consider `CNC(=O)C(=O)N[C@@H](C)CN1CC[C@]2(C[C@@H]1C)OC(=O)NN=C2c1ccc(C#N)cc1Cl` [Example 280], for which the figures for the IC50 at full-length human PLD2 and on full-length human PLD1 were 316 nM and 147 nM, respectively.
In the case of `Cc1cc(C(=O)N[C@@H](C)CN2CC[C@]3(C[C@@H]2C)OC(=O)NN=C3c2ccc(C#N)cc2Cl)[nH]n1` [Example 281], the IC50 on full-length human PLD2 is 232 nM; on full-length human PLD1, 169 nM.
In the case of `C[C@@H](C[C@H]1CC[C@]2(CC1)OC(=O)NN=C2c1ccc(F)cc1Br)NC(=O)N1CCC2(CC2)C1` [Example 282], the IC50 at full-length human PLD2 was found to be 146 nM; at full-length human PLD1 it was 97 nM.
As to `C[C@@H](C[C@H]1CC[C@]2(CC1)OC(=O)NN=C2c1ccc(F)cc1Br)NC(=O)N1CCOC2(CC2)C1` [Example 283], the IC50 came to 48 nM at full-length human PLD2 and 43 nM at full-length human PLD1.
For the compound `C[C@@H](CN1CCC2(CC1)OC(=O)NN=C2c1ccc(F)cc1Br)NC(=O)N1CCC2(CC2)C1` [Example 284], the IC50 was 40 nM at full-length human PLD2 and 61 nM at full-length human PLD1.
With `CNC(=O)C(=O)N[C@@H](C)CC1CC[C@]2(C[C@@H]1F)OC(=O)NN=C2c1ccc(F)cc1Br` (stereo partly shown) [Example 285], the IC50 on full-length human PLD2 and at full-length human PLD1 was < 10 nM each time.
`Cc1cc(C(=O)N[C@@H](C)CC2CC[C@]3(C[C@@H]2F)OC(=O)NN=C3c2ccc(F)cc2Br)[nH]n1` (stereo partly shown) [Example 286]: the IC50 at full-length human PLD2 is < 10 nM; on full-length human PLD1, 14 nM.
On to `CNC(=O)C(=O)N[C@@H](C)C[C@H]1CC[C@]2(CC1)OC(=O)NN=C2c1cc(C#N)ccc1C` [Example 287], for which the IC50 at full-length human PLD2 is < 10 nM; at full-length human PLD1 it was 13 nM.
Turning to `Cc1cc(C(=O)N[C@@H](C)[C@H](C)N2CCC3(CC2)OC(=O)NN=C3c2ccc(F)cc2Br)[nH]n1` [Example 288], the IC50 is < 10 nM at full-length human PLD2 and 26 nM at full-length human PLD1.
For `CNC(=O)C(=O)N[C@@H](C)[C@H](C)N1CCC2(CC1)OC(=O)NN=C2c1ccc(F)cc1Br` [Example 289], the IC50 was < 10 nM on full-length human PLD2 and 18 nM at full-length human PLD1.
With `Cc1cc(C(=O)N[C@@H](C)[C@@H](C)N2CCC3(CC2)OC(=O)NN=C3c2ccc(F)cc2Br)[nH]n1` [Example 290], the figures for the IC50 at full-length human PLD2 and on full-length human PLD1 were 46 nM and 122 nM, respectively.
With `CNC(=O)C(=O)N[C@@H](C)[C@@H](C)N1CCC2(CC1)OC(=O)NN=C2c1ccc(F)cc1Br` [Example 291], the 50% inhibitory concentration (IC50) stood at 234 nM at full-length human PLD2 and 150 nM on full-length human PLD1.
For `C[C@@H](C[C@H]1CC[C@]2(CC1)OC(=O)NN=C2c1cc(C#N)ccc1Br)NC(=O)C(=O)NC1CC1` [Example 292], the IC50 is < 10 nM on full-length human PLD2 and 23 nM at full-length human PLD1.
With `C[C@@H](C[C@H]1CC[C@]2(CC1)OC(=O)NN=C2c1cc(C#N)ccc1Br)NC(=O)c1ncon1` [Example 293], the IC50 on full-length human PLD2 stood at 325 nM; at full-length human PLD1, 127 nM.
The like results for `CNC(=O)C(=O)N[C@@H](C)C[C@H]1CC[C@]2(CC1)OC(=O)NN=C2c1cc(OC(F)(F)F)ccc1Br` [Example 294] were, in that order, < 10 nM and 11 nM.
On to `C[C@@H](C[C@H]1CC[C@]2(CC1)OC(=O)NN=C2c1cc(OC(F)(F)F)ccc1Br)NC(=O)C(=O)NC1CC1` [Example 295], for which the IC50 at full-length human PLD2 and on full-length human PLD1 was < 10 nM in each case.
Regarding `CNC(=O)C(=O)N[C@@H](C)C[C@H]1CC[C@]2(CC1)OC(=O)NN=C2c1cc(OCC(F)(F)F)ccc1Br` [Example 296], the IC50 at full-length human PLD2 is < 10 nM; at full-length human PLD1 it was 13 nM.
As for `C[C@@H](C[C@H]1CC[C@]2(CC1)OC(=O)NN=C2c1cc(OCC(F)(F)F)ccc1Br)NC(=O)C(=O)NC1CC1` [Example 297], the figures for the IC50 on full-length human PLD2 and at full-length human PLD1 were < 10 nM and 13 nM, respectively.
Turning to `Cc1cc(C(=O)N[C@@H](C)C[C@H]2CC[C@]3(CC2)OC(=O)NN=C3c2cc(OCC(F)(F)F)ccc2Br)[nH]n1` [Example 298], the results for the IC50 at full-length human PLD2 and on full-length human PLD1 were < 10 nM and 15 nM, respectively.
Consider `CNC(=O)C(=O)N[C@@H](C)C[C@H]1CC[C@]2(CC1)OC(=O)NN=C2c1cc(C(=O)NC(C)(C)C)ccc1Br` [Example 299], for which the IC50 at full-length human PLD2 is < 10 nM; on full-length human PLD1 it was 25 nM.
In the case of `CNC(=O)C(=O)N[C@@H](C)CN1CCC2(CC1)OC(=O)NN=C2c1cc(C#N)ccc1Br` [Example 300], the IC50 at full-length human PLD2 was < 10 nM; at full-length human PLD1 it was 38 nM.
With `Cc1cc(C(=O)N[C@@H](C)CN2CCC3(CC2)OC(=O)NN=C3c2cc(C#N)ccc2Br)[nH]n1` [Example 301], the IC50 at full-length human PLD2 was < 10 nM; at full-length human PLD1, 30 nM.
The matching figures for `C[C@@H](CN1CCC2(CC1)OC(=O)NN=C2c1cc(C#N)ccc1Br)NC(=O)c1cc(F)c[nH]1` [Example 302]: < 10 nM and 17 nM.
Regarding `C[C@@H](C[C@H]1CC[C@]2(CC1)OC(=O)NN=C2c1cc(OC(F)(F)F)ccc1Br)NC(=O)c1cnn(C)c1` [Example 303], the IC50 at full-length human PLD2 is < 10 nM; at full-length human PLD1, 11 nM.
The matching figures for `Cc1cc(C(=O)N[C@@H](C)C[C@H]2CC[C@]3(CC2)OC(=O)NN=C3c2cc(OC(F)(F)F)ccc2Br)[nH]n1` [Example 304]: < 10 nM and < 10 nM.
For `C[C@@H](C[C@H]1CC[C@]2(CC1)OC(=O)NN=C2c1cc(OCC(F)(F)F)ccc1Br)NC(=O)c1cnn(C)c1` [Example 305], the IC50 on full-length human PLD2 was < 10 nM; on full-length human PLD1, 15 nM.
The like results for `CNC(=O)C(=O)N[C@@H](C)C[C@H]1CC[C@]2(CC1)OC(=O)NN=C2c1cccc(OC(F)F)c1Br` [Example 306] were, in that order, < 10 nM and < 10 nM.
With `Cc1cc(C(=O)N[C@@H](C)C[C@H]2CC[C@]3(CC2)OC(=O)NN=C3c2cccc(OC(F)F)c2Br)[nH]n1` [Example 307], the values for the IC50 at full-length human PLD2 and at full-length human PLD1 were < 10 nM and 13 nM, respectively.
The like results for `C[C@@H](C[C@H]1CC[C@]2(CC1)OC(=O)NN=C2c1cccc(OC(F)F)c1Br)NC(=O)C(=O)NC1CC1` [Example 308] were, in that order, < 10 nM and 15 nM.
The like results for `C[C@@H](C[C@H]1CC[C@]2(CC1)OC(=O)NN=C2c1cccc(OC(F)F)c1Br)NC(=O)c1cnn(C)c1` [Example 309] were, in that order, < 10 nM and 15 nM.
The like results for `CNC(=O)C(=O)N[C@@H](C)C[C@]1(F)CC[C@@]2(CC1)OC(=O)NN=C2c1cc(C#N)ccc1Br` [Example 310] were, in that order, < 10 nM and 14 nM.
For the compound `Cc1cc(C(=O)N[C@@H](C)C[C@]2(F)CC[C@@]3(CC2)OC(=O)NN=C3c2cc(C#N)ccc2Br)[nH]n1` [Example 311], the IC50 was < 10 nM at full-length human PLD2 and 15 nM at full-length human PLD1.
In the case of `Cc1cc(C(=O)N[C@@H](C)CN2CCC3(CC2)OC(=O)NN=C3c2cc(C#N)ccc2Br)[nH]n1` [Example 312], the concentration for half-maximal inhibition (IC50) at full-length human PLD2 is < 10 nM; at full-length human PLD1, 29 nM.
The like results for `C[C@@H](C[C@H]1CC[C@]2(CC1)OC(=O)NN=C2c1cc(Cl)ccc1Cl)NC(=O)c1cc2ccccn2n1` [Example 313] were, in that order, 25 nM and 23 nM.
Turning to `CNC(=O)C(=O)N[C@@H](C)C[C@H]1CC[C@]2(CC1)OC(=O)NN=C2c1cc(Cl)ccc1Cl` [Example 314], the half-maximal inhibitory concentration (IC50) at full-length human PLD2 and on full-length human PLD1 was < 10 nM throughout.
On to `CNC(=O)C(=O)N[C@@H](C)C[C@H]1CC[C@]2(CC1)OC(=O)NN=C2c1cccc(C#N)c1Br` [Example 315], for which the IC50 came out at 24 nM at full-length human PLD2 and 25 nM at full-length human PLD1.
As to `C[C@@H](C[C@H]1CC[C@]2(CC1)OC(=O)NN=C2c1cccc(C#N)c1Br)NC(=O)C(=O)NC1CC1` [Example 316], the IC50 on full-length human PLD2 was determined as 61 nM; on full-length human PLD1, 46 nM.
The matching figures for `Cc1cc(C(=O)N[C@@H](C)C[C@H]2CC[C@]3(CC2)OC(=O)NN=C3c2cccc(C#N)c2Br)[nH]n1` [Example 317]: 65 nM and 71 nM.
For `C[C@@H](C[C@H]1CC[C@]2(CC1)OC(=O)NN=C2c1cccc(C#N)c1Br)NC(=O)c1cnn(C)c1` [Example 318], the IC50 amounted to 41 nM at full-length human PLD2 and 37 nM on full-length human PLD1.
As to `CNC(=O)C(=O)N[C@@H](C)C[C@]1(O)CC[C@]2(CC1)OC(=O)NN=C2c1ccc(F)cc1Br` [Example 319], the IC50 on full-length human PLD2 was 744 nM; at full-length human PLD1, 2090 nM.
`Cc1cc(C(=O)N[C@@H](C)C[C@]2(O)CC[C@]3(CC2)OC(=O)NN=C3c2ccc(F)cc2Br)[nH]n1` [Example 320, N—((S)-1-(cis-5-(2-bromo-4-fluorophenyl)-9-hydroxy-2-oxo-1-oxa-3,4-diazaspiro[5.5]undec-4-en-9-yl)propan-2-yl)-3-methyl-1H-pyrazole-5-carboxamide]: the IC50 on full-length human PLD2 came to 1580 nM; on full-length human PLD1, 3880 nM.
For `CNC(=O)C(=O)N[C@@H](C)C[C@]1(O)CC[C@@]2(CC1)OC(=O)NN=C2c1ccc(F)cc1Br` [Example 321], the IC50 at full-length human PLD2 is < 10 nM; on full-length human PLD1, 42 nM.
The matching figures for `Cc1cc(C(=O)N[C@@H](C)C[C@]2(O)CC[C@@]3(CC2)OC(=O)NN=C3c2ccc(F)cc2Br)[nH]n1` [Example 322, N—((S)-1-(trans-5-(2-bromo-4-fluorophenyl)-9-hydroxy-2-oxo-1-oxa-3,4-diazaspiro[5,5]undec-4-en-9-yl)propan-2-yl)-3-methyl-1H-pyrazole-5-carboxamide]: < 10 nM and 30 nM.
